Source: paper PMC2677733 (International Journal of Biological Sciences, 2009)

Biological target: T1, OlatOR1/OlatOR2 (Ostrinia latipennis, UniProt C1PHB5)
T1 sequence (C1PHB5 1-424): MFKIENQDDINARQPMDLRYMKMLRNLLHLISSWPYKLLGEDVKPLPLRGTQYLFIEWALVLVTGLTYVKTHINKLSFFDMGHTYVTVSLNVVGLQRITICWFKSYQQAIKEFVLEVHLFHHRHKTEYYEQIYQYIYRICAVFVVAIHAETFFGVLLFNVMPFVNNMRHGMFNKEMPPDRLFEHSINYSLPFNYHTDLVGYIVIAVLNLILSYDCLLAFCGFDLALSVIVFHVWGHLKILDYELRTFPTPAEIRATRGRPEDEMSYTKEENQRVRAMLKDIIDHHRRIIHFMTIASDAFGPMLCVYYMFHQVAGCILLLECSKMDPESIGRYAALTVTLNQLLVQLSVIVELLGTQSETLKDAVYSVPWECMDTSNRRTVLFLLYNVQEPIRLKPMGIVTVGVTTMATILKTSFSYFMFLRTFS
T1 sequence (C1PHA8 1-473 partner): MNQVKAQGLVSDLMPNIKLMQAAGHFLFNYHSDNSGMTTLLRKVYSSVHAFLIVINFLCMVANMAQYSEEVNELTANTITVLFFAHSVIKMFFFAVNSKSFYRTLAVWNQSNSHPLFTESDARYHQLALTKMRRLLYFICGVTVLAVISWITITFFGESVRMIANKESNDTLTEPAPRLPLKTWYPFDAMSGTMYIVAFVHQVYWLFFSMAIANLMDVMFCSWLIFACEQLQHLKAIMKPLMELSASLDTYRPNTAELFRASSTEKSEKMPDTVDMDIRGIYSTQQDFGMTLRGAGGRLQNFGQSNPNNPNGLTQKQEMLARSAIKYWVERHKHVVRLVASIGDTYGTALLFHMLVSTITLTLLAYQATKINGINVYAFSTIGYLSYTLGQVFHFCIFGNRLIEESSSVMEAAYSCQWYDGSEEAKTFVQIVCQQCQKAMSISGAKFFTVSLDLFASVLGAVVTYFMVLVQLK
Assay: two-electrode voltage clamp, Xenopus oocytes
Assay type: cell-based
Conditions: agonist, inward current; -80 mV; pH 7.6; 10 µM

Compound	two-electrode voltage clamp, Xenopus oocytes
CCCC/C=C\CCCCCCCCCCOC(C)=O [Z11-16:OAc]	OlatOR1/OlatOR2 cells were found to show exactly the same response pattern as OscaOR1/OscaOR2 cells
CC/C=C/CCCCCCCCCCO [E11-14:OH, (E)-11-tetradecenol]	OscaOR1 and OlatOR1, strongly responded to E11-14:OH
